# Measured values from US9144573B2, “Prostaglandin transporter inhibitors” (Albert Einstein College of Medicine of Yeshiva University, priority 2006, dated 2015).
# Test system: EP4
# Assay: PGE2 binding to EP4 in membranes of MDCK cells expressing PGT
# Type: cell-based, human
# Conditions: 5 μM, 10 minutes at 37° C.
# Description: EP4 expression in MDCK cells that constitutively express PGT was tested by determining PGE2 binding to the cells. Wild type MDCK cells and MDCK cells stably expressing PGT were transiently transfected with human cDNA of EP4 (UMR cNDA Resource Center, www.cdna.org). About 30 hours after transfection, the cells were incubated in Waymouth buffer containing 0 and 20 nM of unlabeled PGE2, and either 4% vehicle (DMSO) or 5 μM T26A, for 10 minutes at 37° C. The cells were then washed with PBS buffer and lysed the cells with lysing buffer containing 10 mM TrisHCl, pH, 7.5, 5 mM EDTA, 100 nM okadaic acid, and 20 μM indomethacin. The cells were then harvested and homogenized using a Potter-Elvehiem homogenizer in an ice cold solution containing 10 mM Tris-HCl, pH. 7.4, 1 mM EDTA, 0, 1 mM phenylmethylsulfonyl fluoride, 20 μM indomethacin, then centrifuged the homogenate at 800 g for 5 minutes. The supernatant was transferred to another tube and centrifuged at 19000 rpm for 45 minutes. The supernatant was then discarded and the pellets washed with buffer A containing 20 mM HEPES-NaOH, pH. […] EP4 bound to ^3H-PGE2 were quantified as described by Negishi et al., 1987. Nonspecific binding was determined by using 1000-fold excess of unlabeled PGE2 in the incubation mixture. The specific binding was calculated by subtracting the nonspecific bind value from the total binding value (Nishigaki et al., 1996).
smiles,measurement,value
[N-]=[N+]=NCCOCCOCCNC(=O)c1ccc(Nc2nc(NCCOCCOCCNC(=O)c3ccccc3)nc(Nc3ccc(O)cc3)n2)cc1 [T26A],effect on PGT-induced increase of PGE2 binding to EP4,abrogates this effect
